Source: US20120157401A1, “METHODS FOR TREATING NEUROFIBROMATOSIS” (PTC Therapeutics, Inc., priority 2009, published 2012)

Each compound was assayed on hypoxia-inducible endogenous VEGF expression (assay: Hypoxia-inducible endogenous VEGF expression ELISA in HeLa cells, dose-response EC50 (Table 3)). Conditions: HeLa cells, hypoxic conditions (1% O2), 24-48 hours, VEGF in conditioned media; read-out: ELISA EC50.
Assay type: cell-based, human
How it was run: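 HeLa cells kept 24-48 h under hypoxia (1% O2, 5% CO2, nitrogen balance) with or without compound, e.g. seven concentrations; secreted VEGF in conditioned medium quantified by ELISA against a standard curve. Parallel Cell Titer Glo viability under identical conditions excludes cytotoxicity.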

SMILES | EC50 [µM]
CC(C)c1ccc(C2c3[nH]c4ccc(Br)cc4c3CCN2C(=O)Oc2ccc(Cl)cc2)cc1 (centres unmarked) [Compound 572] | < 0.008

Same assay, conditions: Homo sapiens, HeLa, read-out: ELISA EC50 μM

SMILES | EC50 [µM]
COc1cc(C2c3[nH]c4ccc(Cl)cc4c3CCN2C(=O)Oc2ccc(Cl)cc2)ccc1OCCCN1CCOCC1 (centres unmarked) [Compound 1093] | 0.008 to 0.04
O=C(Oc1ccc(F)cc1)N1CCc2c([nH]c3ccc(Cl)cc23)C1c1ccc(OCCCCNCCCn2ccnc2)cc1 (centres unmarked) [Compound 741] | 0.04 to 0.2
O=C(Oc1ccc(Cl)cc1)N1CCc2c([nH]c3ccc(Cl)cc23)C1c1ccc(OCCCNCCO)cc1 (centres unmarked) [Compound 1183] | < 0.008
O=C1CN(CCCOc2ccc(C3c4[nH]c5ccc(Cl)cc5c4CCN3C(=O)Oc3ccc(Cl)cc3)cc2)C(=O)N1 (centres unmarked) [Compound 1672] | < 0.008
CC(C)NCCCOc1ccc(C2c3[nH]c4ccc(Cl)cc4c3CCN2C(=O)Oc2ccc(Cl)cc2)cc1 (centres unmarked) [Compound 953] | 0.008 to 0.04
O=C(Oc1ccc(F)cc1)N1CCc2c([nH]c3ccc(Cl)cc23)C1c1ccc(OCCCCCCNCCCn2ccnc2)cc1 (centres unmarked) [Compound 779] | 0.04 to 0.2
COCCN1CCN(C(=O)COc2ccc(C3c4[nH]c5ccc(Cl)cc5c4CCN3C(=O)Oc3ccc(F)cc3)cc2)CC1 (centres unmarked) [Compound 1021] | 0.04 to 0.2
O=C(COc1ccc(C2c3[nH]c4ccc(Cl)cc4c3CCN2C(=O)Oc2ccc(F)cc2)cc1)NCCN1CCOCC1 (centres unmarked) [Compound 1022] | 0.04 to 0.2
O=C(Oc1ccc(F)cc1)N1CCc2c([nH]c3ccc(Cl)cc23)C1c1ccc(OCCCCCCNCCO)cc1 (centres unmarked) [Compound 772] | < 0.008
CN1CCCC1CCOc1ccc(C2c3[nH]c4ccc(Cl)cc4c3CCN2C(=O)Oc2ccc(F)cc2)cc1 (centres unmarked) [Compound 1008] | 0.04 to 0.2
CN1CCN(CCCOc2ccc(C3c4[nH]c5ccc(Cl)cc5c4CCN3C(=O)Oc3ccccc3)cc2)CC1 (centres unmarked) [Compound 1076] | 0.04 to 0.2

Same assay, conditions: Homo sapiens; HeLa cells, hypoxic conditions (1% O2), 24-48 hours, VEGF in conditioned media; read-out: ELISA EC50

SMILES | EC50 [µM]
O=C(Oc1ccccc1)N1CCc2c([nH]c3ccc(Cl)cc23)C1c1ccccc1 (centres unmarked) [Compound 121] | 0.008 to 0.04
COc1ccc(OC(=O)N2CCc3c([nH]c4ccc(Cl)cc34)C2c2ccc(OCCCn3cncn3)cc2)cc1 (centres unmarked) [Compound 888] | < 0.008
O=C(Oc1ccc(F)cc1)N1CCc2c([nH]c3ccc(Cl)cc23)C1c1ccc(OCC2OCCO2)cc1 (centres unmarked) [Compound 1051] | < 0.008
COCC(=O)NCC(O)CCOc1ccc([C@H]2c3[nH]c4ccc(Cl)cc4c3CCN2C(=O)Oc2ccc(C)cc2)cc1 (some centres unmarked) [Compound 1301] | 0.008 to 0.04
O=C(Oc1ccc(F)cc1)N1CCc2c([nH]c3ccc(Cl)cc23)C1c1ccc(OCCn2ccnn2)cc1 (centres unmarked) [Compound 833] | 0.04 to 0.2
COc1ccc(OC(=O)N2CCc3c([nH]c4ccc(Cl)cc34)C2c2ccc(OCC[C@H]3COC(C)(C)O3)cc2)cc1 (some centres unmarked) [Compound 1171] | < 0.008
O=C(Oc1ccc(Cl)cc1)N1CCc2c([nH]c3ccc(Cl)cc23)[C@H]1c1ccc(OCCCn2nccn2)cc1 [Compound 1127] | 0.04 to 0.2
O=C(Oc1ccc(Cl)cc1)N1CCc2c([nH]c3ccc(Cl)cc23)C1c1ccc(OCCCCn2ccnc2)cc1 (centres unmarked) [Compound 705] | 0.008 to 0.04
O=C(Oc1ccc(F)cc1)N1CCc2c([nH]c3ccc(Cl)cc23)C1c1cccc(OCCCn2cncn2)c1 (centres unmarked) [Compound 1155] | 0.04 to 0.2
O=C(Oc1ccc(Cl)cc1)N1CCc2c([nH]c3ccc(Cl)cc23)C1c1ccc(OCCCCCl)cc1 (centres unmarked) [Compound 660] | < 0.008
Cc1ccc(OC(=O)N2CCc3c([nH]c4ccc(Cl)cc34)C2c2ccc(OCCCn3cncn3)cc2)cc1 (centres unmarked) [Compound 882] | < 0.008
COc1ccc(OC(=O)N2CCc3c([nH]c4ccc(Br)cc34)[C@@H]2c2ccc(Cl)cc2)cc1 [#332] | > 1
O=C(Oc1ccccc1Cl)N1CCc2c([nH]c3ccc(Cl)cc23)C1c1ccc(F)cc1 (centres unmarked) [Compound 588] | 0.04 to 0.2
O=C(Oc1ccccc1)N1CCc2c([nH]c3ccc(Cl)cc23)C1c1ccc(OCCCO)cc1 (centres unmarked) [Compound 1062] | < 0.008
O=C(Oc1ccccc1)N1CCc2c([nH]c3ccc(Cl)cc23)C1c1ccc(OCCCn2cncn2)cc1 (centres unmarked) [Compound 891] | < 0.008
O=C(Oc1ccc(Cl)cc1)N1CCc2c([nH]c3ccc(Cl)cc23)C1c1ccc(OCC(O)Cn2ccnc2)cc1 (centres unmarked) [Compound 867] | 0.008 to 0.04
O=C(Oc1ccc(Cl)cc1)N1CCc2c([nH]c3ccc(Cl)cc23)C1c1ccc(N2CCCC2)cc1 (centres unmarked) [Compound 984] | 0.2 to 1
O=C(Oc1ccc(F)cc1)N1CCc2c([nH]c3ccc(Cl)cc23)C1c1ccc(OCCCCCl)cc1 (centres unmarked) [Compound 719] | < 0.008
O=C(Oc1ccc(F)cc1)N1CCc2c([nH]c3ccc(Cl)cc23)C1c1ccc(OCC(O)CO)cc1 (centres unmarked) [Compound 627] | < 0.008
C=CCOc1ccc([C@H]2c3[nH]c4ccc(Cl)cc4c3CCN2C(=O)Oc2ccc(Cl)cc2)cc1 [Compound 1159] | < 0.008
CS(=O)(=O)Nc1ccc(C2c3[nH]c4ccc(Cl)cc4c3CCN2C(=O)Oc2ccc(Cl)cc2)cc1 (centres unmarked) [Compound 974] | 0.04 to 0.2
COc1ccc(OC(=O)N2CCc3c([nH]c4ccc(Cl)cc34)C2c2ccc(OCCCCl)cc2)cc1 (centres unmarked) [Compound 944] | 0.008 to 0.04
C=CC(=O)Nc1ccc(C2c3[nH]c4ccc(Cl)cc4c3CCN2C(=O)Oc2ccc(Cl)cc2)cc1 (centres unmarked) [Compound 500] | 0.04 to 0.2
O=C(Oc1ccc(F)cc1)Oc1ccc(C2c3[nH]c4ccc(Cl)cc4c3CCN2C(=O)Oc2ccc(F)cc2)cc1 (centres unmarked) [Compound 576] | 0.04 to 0.2
O=C1OCC(COc2ccc(C3c4[nH]c5ccc(Cl)cc5c4CCN3C(=O)Oc3ccc(Cl)cc3)cc2)O1 (centres unmarked) [Compound 421] | < 0.008
O=C(Oc1ccccc1Cl)N1CCc2c([nH]c3ccc(Cl)cc23)C1c1ccc(OCCCCl)cc1 (centres unmarked) [Compound 713] | 0.008 to 0.04
O=C(Oc1ccc(Cl)cc1)N1CCc2c([nH]c3ccc(Cl)cc23)C1c1ccc(OCCCCCCn2cncn2)cc1 (centres unmarked) [Compound 791] | < 0.008
O=C(Oc1ccccc1Cl)N1CCc2c([nH]c3ccc(Cl)cc23)C1c1ccc(C(F)(F)F)cc1 (centres unmarked) [Compound 594] | 0.04 to 0.2
O=C(Oc1ccccc1)N1CCc2c([nH]c3ccc(Cl)cc23)C1c1ccc(OCCCn2ccnc2)cc1 (centres unmarked) [Compound 911] | < 0.008

Same assay, conditions: Homo sapiens; HeLa cells, hypoxic conditions (1% O2), VEGF ELISA of conditioned media; read-out: ELISA EC50

SMILES | EC50 [µM]
CCC(CO)(CO)COc1ccc(C2c3[nH]c4ccc(Br)cc4c3CCN2C(=O)Oc2ccc(F)cc2)cc1 (centres unmarked) [Compound 1357] | < 0.008
O=C(Oc1ccc(Cl)cc1)N1CCc2c([nH]c3ccc(Cl)cc23)[C@@H]1c1ccc(Oc2ccc(Cl)nn2)cc1 [Compound 1698] | < 0.008
CCOC(=O)NCC(O)COc1ccc(C2c3[nH]c4ccc(Cl)cc4c3CCN2C(=O)Oc2ccc(Cl)cc2)cc1 (centres unmarked) [Compound 1562] | 0.008 to 0.04
[H]/N=c1\scnn1CCOc1ccc(C2c3[nH]c4ccc(Cl)cc4c3CCN2C(=O)Oc2ccc(F)cc2)cc1 (centres unmarked) [Compound 1415] | < 0.008
CCOC(=O)NC[C@@H](O)COc1ccc([C@H]2c3[nH]c4ccc(Cl)cc4c3CCN2C(=O)Oc2ccc(F)cc2)cc1 [Compound 1664] | < 0.008
C#CCCCOc1ccc([C@H]2c3[nH]c4ccc(Cl)cc4c3CCN2C(=O)Oc2ccc(Cl)cc2)cc1 [Compound 1613] | < 0.008
O=C(Oc1ccc(F)cc1)N1CCc2c([nH]c3ccc(Cl)cc23)C1c1ccc(OC2CCOCC2)cc1 (centres unmarked) [Compound 1577] | < 0.008
Cc1nccnc1Oc1ccc([C@H]2c3[nH]c4ccc(Cl)cc4c3CCN2C(=O)Oc2ccc(Cl)cc2)cc1 [Compound 1659] | < 0.008
O=C(Oc1ccc(Cl)cc1)N1CCc2c([nH]c3ccc(Cl)cc23)C1c1ccc(OCC(O)CNS(=O)(=O)C2CC2)cc1 (centres unmarked) [Compound 1567] | 0.04 to 0.2
